Assays:
[1] = target: Hemoglobin + feces sample (Homo sapiens, UniProt P68871+P69905); test: Hemoglobin stabilization effect in storage solution, hemoglobin coexisting with feces sample (residual ratio by immunological measurement); conditions: for Residual ratio, Hemoglobin + feces sample: stored at 37° C. for 20 hours, pH 7.0 HEPES storage solution; for Stabilizing effect (in words): 0.001-0.050 mol/L
[2] = target: Hemoglobin (Homo sapiens, UniProt P68871+P69905); test: Hemoglobin stabilization effect in storage solution, hemoglobin only (residual ratio by immunological measurement); conditions: for Residual ratio, Hemoglobin: stored at 37° C. for 20 hours, pH 7.0 HEPES storage solution; for Stabilizing effect (in words): 0.001-0.050 mol/L
Hemoglobin, sequence (P69905 2-142 limits assumed): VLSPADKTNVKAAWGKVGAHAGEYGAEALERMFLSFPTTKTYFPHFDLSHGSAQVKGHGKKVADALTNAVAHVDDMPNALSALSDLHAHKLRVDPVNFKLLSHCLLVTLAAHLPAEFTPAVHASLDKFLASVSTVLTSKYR
Hemoglobin, sequence (P68871 2-147 limits assumed): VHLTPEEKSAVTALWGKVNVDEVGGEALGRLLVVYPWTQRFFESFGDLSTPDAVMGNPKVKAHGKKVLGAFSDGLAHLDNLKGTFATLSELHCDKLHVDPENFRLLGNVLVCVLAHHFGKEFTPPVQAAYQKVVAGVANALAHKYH

[3] = target: fecal human hemoglobin (Homo sapiens, UniProt P68871+P69905); conditions: single use of EDTA
fecal human hemoglobin, sequence (P69905 2-142 limits assumed): as the sequence (P69905 2-142 limits assumed) above
fecal human hemoglobin, sequence (P68871 2-147 limits assumed): as the sequence (P68871 2-147 limits assumed) above

[4] = test solution in which hemoglobin and feces coexist, 37° C., 20 hours
[5] = test solution of hemoglobin only, 37° C., 20 hours

Hemoglobin + feces sample, sequence (P69905 2-142 limits assumed): as the sequence (P69905 2-142 limits assumed) above
Hemoglobin + feces sample, sequence (P68871 2-147 limits assumed): as the sequence (P68871 2-147 limits assumed) above

Row | SMILES | Residual ratio, Hemoglobin + feces sample ([1]; 0.001 mol/L agent added) | Residual ratio, Hemoglobin + feces sample ([1]; 0.010 mol/L agent added) | Residual ratio, Hemoglobin + feces sample ([1]; 0.050 mol/L agent added) | Stabilizing effect (in words) [1, 4] | Residual ratio, Hemoglobin ([2]; 0.001 mol/L agent added) | Residual ratio, Hemoglobin ([2]; 0.010 mol/L agent added) | Residual ratio, Hemoglobin ([2]; 0.050 mol/L agent added) | Stabilizing effect (in words) [2, 5] | other results
1 | O=C(O)CN(CCO)CC(=O)O [HIDA, N-(2-hydroxyethyl) iminodiacetic acid] | 26.1% | 26.4% | 27.3% | any certain stabilizing effect was not observed | 80.3% | 79.3% | 81.6% | slight stabilizing effect was observed | 
2 | O=C([O-])CC(NC(C(=O)[O-])C(O)C(=O)[O-])C(=O)[O-].[Na+].[Na+].[Na+].[Na+] (centres unmarked) [HIDS, tetrasodium 3-hydroxy-2,2′-iminodisuccinate] | 28.8% | 39.2% | 50.8% |  | 82.8% | 84.2% | 84.1% |  | Residual ratio, Hemoglobin + feces sample ([1]; 0.005 mol/L agent added): 32.3%; Residual ratio, Hemoglobin + feces sample ([1]; 0.075 mol/L agent added): 53.9%; Residual ratio, Hemoglobin + feces sample ([1]; 0.100 mol/L agent added): 55.9%; Residual ratio, Hemoglobin + feces sample ([1]; 0.150 mol/L agent added): 57.8%; Residual ratio, Hemoglobin + feces sample ([1]; 0.200 mol/L agent added): 46.3%; Concentration at which the effect to stabilize hemoglobin was remarkable ([1]; 37° C., 20 hours): ≥ 0.050 mol/L; Concentration at which the stabilizing effect is observed [1, 4]: ≥ 0.005 mol/L; Residual ratio, Hemoglobin ([2]; 0.005 mol/L agent added): 83.9%; Residual ratio, Hemoglobin ([2]; 0.075 mol/L agent added): 85.2%; Residual ratio, Hemoglobin ([2]; 0.100 mol/L agent added): 87.8%; Residual ratio, Hemoglobin ([2]; 0.150 mol/L agent added): 88.2%; Residual ratio, Hemoglobin ([2]; 0.200 mol/L agent added): 86.2%; Concentration at which a stabilizing effect was observed [2, 5]: ≥ 0.001 mol/L
3 | O=C(O)CNCC(=O)O [IDA, iminodiacetic acid] | 28.0% | 27.3% | 26.3% | any certain stabilizing effect was not observed | 82.1% | 80.9% | 81.0% | slight stabilizing effect was observed | 
4 | O=C(O)CN(CCN(CC(=O)O)CC(=O)O)CC(=O)O [EDTA, ethylenediamine-N,N,N′,N′-4 acetic acid] | 34.3% | 35.8% | 37.1% | slightly higher effect to stabilize hemoglobin was observed | 79.5% | 79.8% | 82.4% | slight stabilizing effect was observed | Stabilizing action on fecal human hemoglobin (in words) [3]: sufficient stabilizing action on fecal human hemoglobin cannot be expected
